Experimental data reported in US11440913B2, “Aminoimidazopyridazines as kinase inhibitors” (BRISTOL-MYERS SQUIBB COMPANY, priority 2017, dated 2022).
Where a name gives a salt, the structure may show the parent alone. Read-outs that look alike come from different tables or passages of the source.

Legend:
[1] = target: His-GST-TVMV-hRIPK1(1-324) (Homo sapiens (Human), UniProt Q13546); test: RIPK1 HTRF Binding Assay; conditions: HTRF binding, 1 h at rt, read-out: RIPK1 (IC50)
Method in brief: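 HTRF probe-displacement binding: 1 nM His-GST-TVMV-hRIPK1(1-324) (baculovirus construct), 90.6 nM probe, 0.2 nM anti-GST-Tb in 20 mM HEPES, 10 mM MgCl2, 0.015% Brij-35, 4 mM DTT, 0.05 mg/mL BSA. Incubated 1 h at rt; FRET 520/495 nm ratio, inhibition relative to DMSO-only wells.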

[2] = tested on: MLKL phosphorylation in HT29-L23 human colorectal adenocarcinoma cells; test: MLKL Phosphorylation High-Content Assay; type: cell-based; conditions: 6 h, necroptosis induced with TNFα, SMAC mimetic and Z-VAD, read-out: pMLKL (IC50)
Method in brief: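 HT29-L23 cells pretreated 30 min at 37 °C with compound (6.25 to 0.106 μM final), then necroptosis induced with TNFα 35 ng/mL, SMAC mimetic 700 nM and Z-VAD 140 nM for 6 h. Fixed cells immunostained for MLKL pS358 and imaged; IC50 and Ymax from 4-parameter logistic fit.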

Chain of His-GST-TVMV-hRIPK1(1-324) (Q13546 1-324): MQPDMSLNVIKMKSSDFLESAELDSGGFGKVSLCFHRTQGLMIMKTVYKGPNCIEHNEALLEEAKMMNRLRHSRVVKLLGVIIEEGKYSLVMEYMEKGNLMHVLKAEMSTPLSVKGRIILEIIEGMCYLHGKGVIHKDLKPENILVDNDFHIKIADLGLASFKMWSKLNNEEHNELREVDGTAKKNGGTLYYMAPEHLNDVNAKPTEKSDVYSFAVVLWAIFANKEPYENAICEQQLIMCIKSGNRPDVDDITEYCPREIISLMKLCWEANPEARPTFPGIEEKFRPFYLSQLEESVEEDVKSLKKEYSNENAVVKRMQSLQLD

SMILES	IC50 [1]	IC50 ([2]; Homo sapiens)	IC50 ([1]; TFA)	IC50 ([2]; TFA)	IC50 [2]
[2H]C([2H])([2H])[C@@H](NC(=O)c1c(OC)ccc(-c2ccc3nc(NC(C)=O)cn3n2)c1F)c1cc(OC(F)(F)F)ccc1F [Example 378, 3-{2-acetamidoimidazo [1,2-b]pyridazin-6-yl}-2-fluoro-N-[(1R)-1-[2-fluoro-5-(trifluoromethoxy)phenyl](2,2,2-Â^2Hâ,f)ethyl]-6-methoxybenzamide]	6 nM	1 nM			
COc1ncc(-c2ccc3nc(NC(C)=O)cn3n2)cc1C(=O)NCc1cc(F)ccc1OCC(F)(F)F [Example 105, 5-{2-acetamidoimidazo[1,2-b]pyridazin-6-yl}-N-{[5-fluoro-2-(2,2,2-trifluoroethoxy)phenyl]methyl}-2-methoxypyridine-3-carboxamide]	5 nM	17 nM			
CC(=O)Nc1cn2nc(-c3ccc(C)c(C(=O)NCc4cc(F)cc(F)c4C(=O)N4CC[C@H](O)C4)c3)ccc2n1 [Example 407, N-({3,5-difluoro-2-[(3S)-3-hydroxypyrrolidine-1-carbonyl]phenyl}methyl)-5-{2-acetamidoimidazo [1,2-b]pyridazin-6-yl}-2-methylbenzamide]	37 nM	388 nM			
CC(=O)Nc1cn2nc(-c3ccc(C)c(C(=O)NCC[C@@H](O)c4ccc(Cl)cc4)c3)ccc2n1 [Example 397, N-[(3R)-3-(4-chlorophenyl)-3-hydroxypropyl]-5-{2-acetamidoimidazo [1,2-b]pyridazin-6-yl}-2-methylbenzamide]	3 nM	3 nM			
CC(=O)Nc1cn2nc(-c3cnc(C)c(C(=O)NCc4cc(F)cc(F)c4OC4CC(C)OC(C)C4)c3)ccc2n1 (centres unmarked) [Example 189, N-({2-[(2,6-dimethyloxan-4-yl)oxy]-3,5-difluorophenyl}methyl)-5-{2-acetamidoimidazo [1,2-b]pyridazin-6-yl}-2-methylpyridine-3-carboxamide]	91 nM	208 nM			
CC(=O)Nc1cn2nc(-c3cc(C(=O)NCc4cc(F)cc(F)c4OC4CCOCC4)c(C)nc3C)ccc2n1 [Example 78, N-{[3,5-difluoro-2-(oxan-4-yloxy)phenyl]methyl}-5-{2-acetamidoimidazo[1,2-b]pyridazin-6-yl}-2,6-dimethylpyridine-3-carboxamide]	16 nM	21 nM			
COc1nc(C)c(-c2ccc3nc(NC(C)=O)cn3n2)cc1C(=O)NCc1c(F)ccc(F)c1OC [Example 285, N-[(3,6-difluoro-2-methoxyphenyl)methyl]-5-{2-acetamidoimidazo[1,2-b]pyridazin-6-yl}-2-methoxy-6-methylpyridine-3-carboxamide]	17 nM	23 nM			
COc1ncc(-c2ccc3nc(NC(=O)C(C)C)cn3n2)cc1C(=O)NCc1cc(OC(F)(F)F)ccc1F [Example 11, N-{[2-fluoro-5-(trifluoromethoxy)phenyl]methyl}-2-methoxy-5-[2-(2-methylpropanamido)imidazo[1,2-b]pyridazin-6-yl]pyridine-3-carboxamide]	20 nM	89 nM			
COc1nc(C)c(-c2ccc3nc(NC(C)=O)cn3n2)cc1C(=O)NCc1cccnc1OCC1CCC1 [Example 314, N-{[2-(cyclobutylmethoxy)pyridin-3-yl]methyl}-5-{2-acetamidoimidazo[1,2-b]pyridazin-6-yl}-2-methoxy-6-methylpyridine-3-carboxamide]	5 nM	3 nM			
COCC(=O)Nc1cn2nc(-c3cnc(OC)c(C(=O)NCc4ccccc4OC(F)(F)F)c3)ccc2n1 [Example 3, 2-methoxy-5-[2-(2-methoxyacetamido)imidazo[1,2-b]pyridazin-6-yl]-N-{[2-(trifluoromethoxy)phenyl]methyl}pyridine-3-carboxamide]	30 nM	295 nM			
CC(=O)Nc1cn2nc(-c3cnc(C)c(C(=O)NCc4ccccc4OC(F)(F)F)c3)ccc2n1 [Example 220, 5-{2-acetamidoimidazo[1,2-b]pyridazin-6-yl}-2-methyl-N-{[2-(trifluoromethoxy)phenyl]methyl}pyridine-3-carboxamide]	202 nM	406 nM			
COc1ncc(-c2ccc3nc(NC(C)=O)cn3n2)cc1C(=O)NC(C)c1c(F)cccc1OCC1CC1 (centres unmarked) [Example 124, N-{1-[2-(cyclopropylmethoxy)-6-fluorophenyl]ethyl}-5-{2-acetamidoimidazo[1,2-b]pyridazin-6-yl}-2-methoxypyridine-3-carboxamide, TFA]			6 nM	14 nM	
CC(=O)Nc1cn2nc(-c3cnc(C)c(C(=O)NCC[C@H](O)c4ccc(Cl)cc4)c3)ccc2n1 [Example 216, N-[(3S)-3-(4-chlorophenyl)-3-hydroxypropyl]-5-{2-acetamidoimidazo[1,2-b]pyridazin-6-yl}-2-methylpyridine-3-carboxamide]	66 nM	397 nM			
COc1ncc(-c2ccc3nc(NC(C)=O)cn3n2)cc1C(=O)N[C@@H](C)c1cc(C(F)(F)F)ccc1F [Example 106, 5-{2-acetamidoimidazo[1,2-b]pyridazin-6-yl}-N-[(1S)-1-[2-fluoro-5-(trifluoromethyl)phenyl](2,2,2-deutero)ethyl]-2-methoxypyridine-3-carboxamide]	84 nM				95 nM
Cc1ncc(-c2ccc3nc(NC(=O)CN4CC(F)(F)C4)cn3n2)cc1C(=O)NCC[C@@H](O)c1ccc(Cl)cc1 [Example 344, N-[(3R)-3-(4-chlorophenyl)-3-hydroxypropyl]-5-{2-[2-(3,3-difluoroazetidin-1-yl)acetamido]imidazo[1,2-b]pyridazin-6-yl}-2-methylpyridine-3-carboxamide]	266 nM	37 nM			
COc1ncc(-c2ccc3nc(NC(C)=O)cn3n2)cc1C(=O)NCc1ccccc1OCC1CC1 [Example 22, N-{[2-(cyclopropylmethoxy)phenyl]methyl}-5-{2-acetamidoimidazo[1,2-b]pyridazin-6-yl}-2-methoxypyridine-3-carboxamide]	4 nM	26 nM			
CC(=O)Nc1cn2nc(-c3cc(C(=O)N[C@H](C)c4cc(OC(F)(F)F)ccc4F)c(C)nc3C)ccc2n1 [Example 71, 5-{2-acetamidoimidazo[1,2-b]pyridazin-6-yl}-N-[(1R)-1-[2-fluoro-5-(trifluoromethoxy)phenyl]ethyl]-2,6-dimethylpyridine-3-carboxamide]	5 nM	13 nM			
COc1ncc(-c2ccc3nc(NC(C)=O)cn3n2)cc1C(=O)NCc1cc(OC(F)(F)F)ccc1F [Example 154, 5-{2-acetamidoimidazo[1,2-b]pyridazin-6-yl}-N-{[2-fluoro-5-(trifluoromethoxy)phenyl]methyl}-2-methoxypyridine-3-carboxamide]	13 nM	15 nM			
COc1ccc(F)c(CNC(=O)c2cc(-c3ccc4nc(NC(C)=O)cn4n3)cnc2OC)c1 [Example 100, 5-{2-acetamidoimidazo[1,2-b]pyridazin-6-yl}-N-[(2-fluoro-5-methoxyphenyl)methyl]-2-methoxypyridine-3-carboxamide]	56 nM	203 nM			
CC(=O)Nc1cn2nc(-c3cc(C(=O)NCc4cc(F)cc(F)c4OCC4CC4)cnc3C)ccc2n1 [Example 16, N-{[2-(cyclopropylmethoxy)-3,5-difluorophenyl]methyl}-5-{2-acetamidoimidazo[1,2-b]pyridazin-6-yl}-6-methylpyridine-3-carboxamide]	4 nM	5 nM			
[2H]C([2H])([2H])Oc1ncc(-c2ccc3nc(NC(C)=O)cn3n2)cc1C(=O)NCc1cc(F)cc(F)c1OC1COC1 [Example 48, N-{[3,5-difluoro-2-(oxetan-3-yloxy)phenyl]methyl}-5-{2-acetamidoimidazo[1,2-b]pyridazin-6-yl}-2-(D3)methoxypyridine-3-carboxamide]	10 nM	87 nM			
COc1nc(C)c(-c2ccc3nc(NC(C)=O)cn3n2)cc1C(=O)NCc1cc(F)cc(F)c1OCC1CC1 [Example 287, N-{[2-(cyclopropylmethoxy)-3,5-difluorophenyl](deutero)methyl}-5-{2-acetamidoimidazo[1,2-b]pyridazin-6-yl}-2-methoxy-6-methylpyridine-3-carboxamide]	4 nM				2 nM
COc1ncc(-c2ccc3nc(NC(C)=O)c(C)n3n2)cc1C(=O)NCc1cc(C(F)(F)F)ccc1F [Example 254, 5-{2-acetamido-3-methylimidazo[1,2-b]pyridazin-6-yl}-N-{[2-fluoro-5-(trifluoromethyl)phenyl]methyl}-2-methoxypyridine-3-carboxamide]	101 nM	66 nM			
COc1nc(C)c(-c2ccc3nc(NC(C)=O)cn3n2)cc1C(=O)NCc1cc(C(F)(F)F)ccc1F [Example 296, 5-{2-acetamidoimidazo[1,2-b]pyridazin-6-yl}-N-{[2-fluoro-5-(trifluoromethyl)phenyl]methyl}-2-methoxy-6-methylpyridine-3-carboxamide]	10 nM	20 nM			
COc1ncc(-c2ccc3nc(NC(C)=O)cn3n2)cc1C(=O)NCc1cc(F)cc(F)c1OC1CCOCC1 [Example 129, N-{[3,5-difluoro-2-(oxan-4-yloxy)phenyl]methyl}-5-{2-acetamidoimidazo[1,2-b]pyridazin-6-yl}-2-methoxypyridine-3-carboxamide, TFA]	1 nM				2 nM
